Experimental data as given in ChEMBL document CHEMBL1667778, “Naphthalene/quinoline amides and sulfonylureas as potent and selective antagonists of the EP4 receptor” (Bioorg Med Chem Lett, 2011).

Legend:
[1] = AUC (0 to 24 hrs) in Beagle dog at 4 mg/kg, po; type: ADME, organism-based, Canis lupus familiaris; set-up: time < 24 hr, dose 4 mg/kg, route oral; conditions: plasma
[2] = Bioavailability in Sprague-Dawley rat at 5 mg/kg, iv and 20 mg/kg, po; type: ADME, organism-based; conditions: in vivo
[3] = AUC (0 to 24 hrs) in Sprague-Dawley rat at 20 mg/kg, po; type: ADME, organism-based; set-up: time < 24 hr, dose 20 mg/kg, route oral; conditions: plasma
[4] = system: Plasma; test: Drug level in Sprague-Dawley rat plasma at 150 uCi/kg, po after 24 hrs; type: ADME, organism-based; conditions: in vivo
[5] = Elimination half life in Beagle dog at 1 mg/kg, iv and 4 mg/kg, po; type: ADME, organism-based, Canis lupus familiaris; conditions: in vivo
[6] = system: Liver; test: Drug level in Sprague-Dawley rat liver at 150 uCi/kg, po after 24 hrs; type: ADME, organism-based; conditions: in vivo
[7] = Metabolic stability in rat liver microsome; type: ADME; conditions: microsomes
[8] = Clearance in Sprague-Dawley rat at 5 mg/kg, iv and 20 mg/kg, po; type: ADME, organism-based; conditions: in vivo
[9] = Metabolic stability in human liver microsome; type: ADME; conditions: microsomes
[10] = system: Hepatocyte; test: Metabolic stability in human hepatocytes; type: ADME, cell-based
[11] = Elimination half life in Sprague-Dawley rat at 5 mg/kg, iv and 20 mg/kg, po; type: ADME, organism-based; conditions: in vivo
[12] = Clearance in Beagle dog at 1 mg/kg, iv and 4 mg/kg, po; type: ADME, organism-based, Canis lupus familiaris; conditions: in vivo
[13] = system: Hepatocyte; test: Metabolic stability in rat hepatocytes; type: ADME, cell-based
[14] = Bioavailability in Beagle dog at 1 mg/kg, iv and 4 mg/kg, po; type: ADME, organism-based, Canis lupus familiaris; conditions: in vivo

AUC(0-t) at 24 h [1]: 101 µM·h | bioavailability [2]: 84% | AUC(0-t) at 24 h [3]: 37.4 µM·h | Drug uptake [4]: < 10 pmol/mg | half-life [5]: 4.3 h | Drug uptake [6]: < 10 pmol/mg | Stability [7]: 97% | clearance [8]: 11 mL/min/kg | Stability [9]: 90% | Stability [10]: 96% | half-life [11]: 6.6 h | clearance [12]: 1.2 mL/min/kg | Stability [13]: 91% | bioavailability [14]: 100%
SMILES: CCOc1c2c(c(OCC)c3ccccc13)C(=O)N(c1ccc(CC3(NC(=O)NS(=O)(=O)c4c(Cl)cccc4Cl)CC3)cc1C)C2
